For test [1], the target named is T1, RARα (Homo sapiens, UniProt P10276).
T1 sequence (P10276 1-462): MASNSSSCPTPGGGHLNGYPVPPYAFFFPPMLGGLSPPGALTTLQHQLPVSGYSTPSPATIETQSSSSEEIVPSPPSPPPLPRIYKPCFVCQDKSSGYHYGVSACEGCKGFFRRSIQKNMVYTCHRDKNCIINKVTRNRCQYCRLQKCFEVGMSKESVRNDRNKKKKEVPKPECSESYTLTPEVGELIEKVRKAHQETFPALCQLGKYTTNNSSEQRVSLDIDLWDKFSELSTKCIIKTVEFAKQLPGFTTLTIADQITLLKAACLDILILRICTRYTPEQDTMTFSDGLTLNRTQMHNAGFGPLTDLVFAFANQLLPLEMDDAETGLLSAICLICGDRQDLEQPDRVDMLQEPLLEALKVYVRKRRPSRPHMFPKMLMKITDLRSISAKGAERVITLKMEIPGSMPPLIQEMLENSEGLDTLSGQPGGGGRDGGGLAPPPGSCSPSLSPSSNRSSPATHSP
Put plainly: Receptor binding, RARα. The settings on record: tritiated retinoid competition.

A further test has as its target T2, RXRα (Homo sapiens, UniProt P19793).
T2 sequence (P19793 1-462): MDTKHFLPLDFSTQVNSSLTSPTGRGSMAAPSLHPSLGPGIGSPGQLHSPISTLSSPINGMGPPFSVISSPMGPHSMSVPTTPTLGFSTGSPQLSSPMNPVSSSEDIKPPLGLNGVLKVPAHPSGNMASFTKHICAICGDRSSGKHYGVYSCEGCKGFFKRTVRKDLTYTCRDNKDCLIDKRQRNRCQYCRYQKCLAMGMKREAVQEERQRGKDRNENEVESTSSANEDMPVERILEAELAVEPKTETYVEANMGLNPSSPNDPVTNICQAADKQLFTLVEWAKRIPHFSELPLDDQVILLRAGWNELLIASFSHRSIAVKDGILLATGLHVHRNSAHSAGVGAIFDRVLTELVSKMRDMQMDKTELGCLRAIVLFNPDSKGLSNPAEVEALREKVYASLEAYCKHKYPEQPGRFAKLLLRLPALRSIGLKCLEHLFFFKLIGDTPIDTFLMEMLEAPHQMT
Put plainly: Co-transfection assay, RXRα agonist activity. The settings on record: CV-1 cells, luciferase reporter, read-out: RXRα Pot. Format: cell-based. Also noted: expressed in transfected cells; host or cells: CV-1 (African green monkey kidney fibroblasts).

Another test has as its system RAR and RXR receptors. Put plainly: Co-transfection assay, RAR and RXR subfamilies (summary in words). Format: cell-based. Particulars: CV-1 cells. How it is done:
Utilizing the "cis-trans" or "co-transfection" assay described by Evans et al., Science, 240:889-95 (May 13, 1988), the disclosure of which is herein incorporated by reference, the retinoid compounds of the present invention were tested and found to have strong, specific activity as either selective RXR agonists, or as pan-agonist activators of both RAR and RXR receptors. This assay is described in further detail in U.S. Pat. Nos. 4,981,784 and 5,071,773, the disclosures of which are incorporated herein by reference.
In the co-transfection assay, a cloned cDNA for an IR (e.g., human RARα, RARβ, RXRγ) under the control of a constitutive promoter (e.g., the SV 40 promoter) is introduced by transfection (a procedure to induce cells to take up foreign genes) into a background cell substantially devoid of endogenous IRs. This introduced gene directs the recipient cells to make the IR protein of interest. A second gene is also introduced (co-transfected) into the same cells in conjunction with the IR gene. This second gene, comprising the cDNA for a reporter protein, such as firefly luciferase (LUC), controlled by an appropriate hormone responsive promoter containing a hormone response element (HRE). This reporter plasmid functions as a reporter for the transcription-modulating activity of the target IR. Thus, the reporter acts as a surrogate for the products (mRNA then protein) normally expressed by a gene under control of the target receptor and its native hormone.
The co-transfection assay can detect small molecule agonists or antagonists of target IRs. Exposing the transfected cells to an agonist ligand compound increases reporter activity in the transfected cells. This activity can be conveniently measured, e.g., by increasing luciferase production, which reflects compound-dependent, IR-mediated increases in reporter transcription. […]. Increasing concentrations of a suspected antagonist will decrease the reporter signal (e.g., luciferase production). The co-transfection assay is therefore useful to detect both agonists and antagonists of specific IRs. […]

For test [2], the target named is T1, RARα. Put plainly: Co-transfection assay, RARα agonist activity. Format: cell-based. The arrangement: expressed in transfected cells; host or cells: CV-1 (African green monkey kidney fibroblasts). The settings on record: CV-1 cells, luciferase reporter, read-out: RARα Pot.

From patent publication US6005007A, “Retinoids, methods for their production and use” (priority 1997, dated 1999) come the findings set out here.

On RARα [1], `CC(/C=C/CC1(c2ccc3c(c2)C(C)(C)CCC3(C)C)CCCC1)=C\C(=O)O` [Compound 108, (2E, 4E)-6-[(5,5,8,8-Tetramethyl-5,6,7,8-tetrahydronaphtha-len-2-yl)cyclopentane-1-yl]-3-methyl hexadienoic acid] had a Kd of over 5000 nM. Also, the EC50 on RXRα was 63 nM; at RARα [2], over 10000 nM. Besides, in the test with RAR and RXR receptors, the “RXR selectivity / pan-agonist activity” value was “extremely potent RXR selective compounds”.
On the same counts, the results for `CC(/C=C/CC1(c2ccc3c(c2)C(C)(C)CCC3(C)C)CC1)=C\C(=O)O` [Compound 101, (2E, 4E)-6-[1-(5,5,8,8-Tetramethyl-5,6,7,8-tetrahydronaphtha-len-2-yl)cyclopropanyl]-3-methyl hexadienoic acid] are 644 nM, 13 nM, 59 nM and “pan-agonists that display superior potency profiles to that of the known pan-agonist compound 9-cis retinoic acid”.
On the same counts, the results for `CC(/C=C/CC1(c2cc(C(C)(C)C)cc3c2CCC3(C)C)CC1)=C\C(=O)O` [Compound 107, (2E, 4E)-6-[1-(6-t-butyl-1,1-dimethyl-indan-4-yl)-cyclopropyl]-3-methyl hexadienoic acid] are over 5000 nM, 34 nM, over 10000 nM and “extremely potent RXR selective compounds”.
